Data: publication PMC7204872, “The Biosynthesis of the Benzoxazole in Nataxazole Proceeds via an Unstable Ester and has Synthetic Utility” (Angewandte Chemie (International Ed. in English), 2020)

Columns and labels:
NatL2 [1] = biological target: T1, NatL2 (Streptomyces sp. Tu 6176, UniProt A0A022MRT4); assay: X-ray crystallography (soaked crystal); assay type: binding
T1 construct: N-terminal hexahistidine-tagged, expressed in E. coli; homodimer, structural Zn2+; residues 5-436 traced (C-terminal extension 405-436)
T1 sequence (A0A022MRT4 1-436): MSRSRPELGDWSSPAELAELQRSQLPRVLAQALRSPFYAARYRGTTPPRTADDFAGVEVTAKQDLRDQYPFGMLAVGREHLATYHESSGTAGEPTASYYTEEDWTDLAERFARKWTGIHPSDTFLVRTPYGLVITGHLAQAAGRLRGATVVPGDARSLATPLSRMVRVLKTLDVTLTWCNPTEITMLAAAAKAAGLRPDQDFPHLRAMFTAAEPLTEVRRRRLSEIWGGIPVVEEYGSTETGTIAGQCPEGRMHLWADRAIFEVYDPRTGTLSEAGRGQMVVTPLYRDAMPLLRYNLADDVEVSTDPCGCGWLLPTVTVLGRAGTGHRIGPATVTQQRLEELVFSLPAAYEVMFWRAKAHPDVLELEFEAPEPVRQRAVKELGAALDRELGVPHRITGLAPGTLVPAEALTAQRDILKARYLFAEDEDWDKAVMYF

NatL2 [2] = biological target: T1, NatL2; assay: X-ray crystallography, […] Å; assay type: binding; conditions: crystallised in the presence of ATP; density modelled as AMP; Lys418 from other monomer

How did the “X-ray crystallography (soaked crystal)” value (NatL2 [1]; soak of AMP:3-HAA crystals, two SA molecules in subunit A, no AMP, SA1 in 3-HAA1 pocket, SA2 in second substrate pocket, not turned over) turn out when O=C(O)c1ccccc1O [SA] was run?
The value was “In subunit A, two molecules of SA are bound but no AMP”.

How did the “X-ray crystallography (soaked crystal)” value (NatL2 [1]; nucleotide site, binary complex and ternary with 3-HAA, no Mg2+ density) turn out when Nc1ncnc2c1ncn2[C@@H]1O[C@H](COP(=O)(O)OP(=O)(O)NP(=O)(O)O)[C@@H](O)[C@H]1O [AMPPNP] was run?
The value was “These crystals were soaked with AMPPNP and the resulting complex was essentially identical”.

Which “X-ray crystallography, 1.9 Å” value (NatL2 [2]) does the source give for Nc1ncnc2c1ncn2[C@@H]1O[C@H](COP(=O)(O)O)[C@@H](O)[C@H]1O [AMP] here?
The value was “Residual electron density in both monomers was best modelled as AMP not ATP”.
